Measured values taken from PMC8513079 (Molecules, 2021).
“Also recorded” adds a separate entry of the source. Read-outs that look alike come from different tables or passages of the source.

Key:
DOR (CHO-K1 OPRD1) = assay: PathHunter β-arrestin recruitment assay, DOR; type: cell-based; details: 37 °C; for β-arrestin recruitment, DOR, in words: PathHunter, compared with 10^−5 M SNC-80, 90 min, n = 3–6
[1] = molecular target: T1, KOR (Halotag-KOR) in HEK293 cells (Homo sapiens, UniProt P41145); assay: cell-based; details: HEK293, read-out: Emax, cAMP assay, KOR (Table 1)
T1 construct: HaloTag; expressed in transfected cells

[2] = molecular target: T2, DOR (T7-tag-DOR) in HEK293 cells (Homo sapiens, UniProt P41143); assay: cADDis cAMP assay, DOR; type: cell-based
T2 construct: T7-tag; expressed in transfected cells

[3] = molecular target: MOR (Halotag-MOR) in HEK293 cells (Homo sapiens, UniProt P35372); assay: cell-based; type: cell-based
DOR [4] = assay: G-protein bias at DOR, cADDis cAMP versus PathHunter β-arrestin; type: cell-based; details: concluded from cADDis cAMP and PathHunter β-arrestin assays
DOR [5] = details: rubiscolin-5 compared with rubiscolin-6; cited from earlier work
From the text: (§1) In view of the results of our cAMP assay, rubiscolins can be considered DOR-biased agonists, consistent with previous reports. […] Indeed, there is a structural ...

receptor = details: rubiscolin-6 versus rubiscolin-5; cited from earlier work
From the text: as §1

[6] = rubiscolin-6 versus rubiscolin-5; cited from earlier work
From the text: as §1

[7] = molecular target: T1, KOR (Halotag-KOR) in HEK293 cells; assay: CellKey impedance assay, antagonist mode, KOR; type: cell-based; details: combined with U-50488H (10^−11–10^−5 M); negative control at 10^−5 concentration; n = 3–4
[8] = molecular target: T3, MOR/DOR heteromer (Halotag-MOR/T7-tag-DOR) in HEK293 cells (Homo sapiens, UniProt P35372+P41143); assay: cADDis cAMP assay, MOR/DOR heteromer; type: cell-based
T3 construct: HaloTag; T7-tag; expressed in transfected cells

MOR (OPRM1) = assay: PathHunter β-arrestin recruitment assay, MOR; type: cell-based; details: compared with 10^−5 M DAMGO, 90 min, 37 °C, n = 3–6
[9] = HEK293, read-out: Emax, cAMP assay, DOR (Table 1)
[10] = HEK293, read-out: Emax, cAMP assay, DOR (Table 2)
[11] = HEK293, read-out: Emax, cAMP assay, MOR (Table 1)
[12] = HEK293, read-out: Emax, cAMP assay, MOR (Table 2)
[13] = cADDis cAMP assay, HEK293 T7-tag-DOR

T2 sequence (P41143 whole entry): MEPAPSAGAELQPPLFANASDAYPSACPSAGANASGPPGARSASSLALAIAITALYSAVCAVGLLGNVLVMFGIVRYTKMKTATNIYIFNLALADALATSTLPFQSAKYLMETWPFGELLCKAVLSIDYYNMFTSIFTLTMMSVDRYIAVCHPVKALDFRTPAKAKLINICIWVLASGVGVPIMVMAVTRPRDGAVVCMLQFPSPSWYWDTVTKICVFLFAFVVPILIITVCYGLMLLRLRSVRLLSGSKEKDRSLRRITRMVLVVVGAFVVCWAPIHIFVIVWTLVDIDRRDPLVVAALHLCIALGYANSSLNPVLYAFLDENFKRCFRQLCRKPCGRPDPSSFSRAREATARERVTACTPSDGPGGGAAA
T1 sequence (P41145 whole entry): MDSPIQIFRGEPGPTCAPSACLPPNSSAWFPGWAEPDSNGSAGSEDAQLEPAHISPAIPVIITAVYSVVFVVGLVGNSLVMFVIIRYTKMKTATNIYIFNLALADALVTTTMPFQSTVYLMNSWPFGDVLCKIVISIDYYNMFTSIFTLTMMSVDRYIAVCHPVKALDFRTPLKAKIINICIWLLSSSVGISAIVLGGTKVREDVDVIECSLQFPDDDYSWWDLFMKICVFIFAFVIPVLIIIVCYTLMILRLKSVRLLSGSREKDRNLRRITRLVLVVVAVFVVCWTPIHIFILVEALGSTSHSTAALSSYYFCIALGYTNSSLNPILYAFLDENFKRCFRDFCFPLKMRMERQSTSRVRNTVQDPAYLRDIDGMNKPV
Sequence of MOR (Halotag-MOR) in HEK293 cells (P35372 whole entry): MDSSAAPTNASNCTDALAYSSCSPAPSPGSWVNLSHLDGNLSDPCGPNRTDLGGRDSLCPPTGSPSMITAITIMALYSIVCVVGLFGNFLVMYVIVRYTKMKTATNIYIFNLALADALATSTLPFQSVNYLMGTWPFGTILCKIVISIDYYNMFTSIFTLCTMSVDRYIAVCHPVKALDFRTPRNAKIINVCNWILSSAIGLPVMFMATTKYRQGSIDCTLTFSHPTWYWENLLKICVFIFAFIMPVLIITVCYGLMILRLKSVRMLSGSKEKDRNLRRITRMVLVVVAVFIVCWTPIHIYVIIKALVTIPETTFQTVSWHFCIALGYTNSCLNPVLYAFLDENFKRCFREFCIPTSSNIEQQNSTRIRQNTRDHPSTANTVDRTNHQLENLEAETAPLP
T3 sequence (P35372 whole entry): as above
T3 sequence (P41143 whole entry): as the sequence (P41143 whole entry) above

Row | Molecule | Emax [1] [%] | β-arrestin recruitment, DOR, in words (DOR (CHO-K1 OPRD1)) | EC50 [2] [nM] | Emax [2, 9] [%] | Emax [2, 10] [%] | Emax [3, 11] [%] | Emax [3, 12] [%] | G-protein bias / agonist type at DOR (DOR [4]) | effect through G-protein-mediated pathway (cAMP), DOR, in words [2, 13] | further results
1 | C=CCN1C[C@H](C)N([C@H](c2ccc(C(=O)N(CC)CC)cc2)c2cccc(OC)c2)C[C@H]1C [SNC-80, (+)-4-[(aR)-a-((2S,5R)-4-allyl-2,5-dimethyl-1-piperazinyl)-3-methoxybenzyl]-N,N-diethylbenzamide, reference compound] | – | – | – | – | – | – | – | – | – | Emax, β-arrestin recruitment, DOR (DOR (CHO-K1 OPRD1); relative to 10^−5 M SNC-80, 90 min stimulation, luminescence, 10^−11–10^−5 M, means ± S.E.M. (n = 3–6), Figure 5B): 100.0 ± 2.6%
2 | H-YPLDL-OH [Rubiscolin-5, H-Tyr-Pro-Leu-Asp-Leu-OH] | 9.6 ± 9 | the most irrelevant with regard to the activity through the β-arrestin-mediated pathway; also recorded: equivalently negligible | 501 | 78.4 ± 6.7 | 78.4 ± 6.7 | 27.5 ± 5.5 | 27.5 ± 5.5 | G-protein-biased DOR full agonists without affecting MOR and KOR | – | G-protein bias (bias factor), previous study (DOR [5]): more G-protein-biased than rubiscolin-6
3 | H-YPLDLF-OH [Rubiscolin-6, H-Tyr-Pro-Leu-Asp-Leu-Phe-OH] | 39.8 ± 20.5 | the most irrelevant with regard to the activity through the β-arrestin-mediated pathway; also recorded: equivalently negligible | 316 | 103 ± 4.1 | 103 ± 4.1 | 14.3 ± 3.2 | 14.3 ± 3.2 | G-protein-biased DOR full agonists without affecting MOR and KOR | robust effect on DOR at 10^−5 concentration; also recorded: relatively stronger than rubiscolin-5 in activating the G-protein-mediated intracellular pathway | receptor affinity relative to rubiscolin-5 (receptor): higher receptor affinity; potency in analgesia relative to rubiscolin-5 [6]: about twice as potent in analgesia as rubiscolin-5
4 | Oc1ccc2c3c1O[C@H]1c4[nH]c5c(c4C[C@@]4(O)[C@@H](C2)N(CC2CC2)CC[C@]314)C[C@@]1(O)[C@H]2Cc3ccc(O)c4c3[C@@]1(CCN2CC1CC1)[C@H]5O4 [norBNI, norbinaltorphimine] | – | – | – | – | – | – | – | – | – | antagonistic effect, CellKey, KOR [7]: completely suppressed the agonistic effects of the positive control
5 | C[C@@H](NC(=O)[C@@H](N)Cc1ccc(O)cc1)C(=O)NCC(=O)N(C)[C@@H](Cc1ccccc1)C(=O)NCCO [DAMGO, D-Ala(2)-N-Me-Phe(4)-Gly-ol(5)-enkephalin, reference compound] | – | – | – | – | – | – | – | – | – | Emax ([2]; HEK293; read-out: Emax, cAMP assay, DOR (Table 1)): 90.9 ± 8.9%; Emax ([2]; HEK293; read-out: Emax, cAMP assay, DOR (Table 2)): 90.9 ± 8.9%; Emax ([8]; relative to 10^−5 M ML335, cADDis sensor, 50 μM forskolin, 28 °C, 40 min reading, 10^−11–10^−5 M, means ± S.E.M. (n = 6–8), Figure 6, + p < 0.05 vs ML335, read-out: Emax, cAMP assay, MOR/DOR (Table 2)): 91.1 ± 5.4%
6 | ML335 [reference compound] | – | partially recruited β-arrestin through both MOR and DOR | – | – | – | – | – | – | full agonist for both MOR and DOR | β-arrestin recruitment, MOR, in words (MOR (OPRM1)): partially recruited β-arrestin through both MOR and DOR; pEC50, cAMP assay, DOR (Table 2) ([2]; -LogEC50; HEK293 T7-tag-DOR; means ± S.E.M. (n = 6–8), Figure 6; # p < 0.05 vs SNC-80): 7.5 ± 0.1 ^# M; Emax, cAMP assay, DOR (Table 2) ([2]; relative to 10^−5 M SNC-80; HEK293 T7-tag-DOR; forskolin-stimulated; 10^−11–10^−5 M; means ± S.E.M. (n = 6–8), Figure 6; # p < 0.05 vs SNC-80): 111.6 ± 3.6%; Emax, cAMP assay, MOR (Table 2) [3]: 112.5 ± 5.3%; effect through G-protein-mediated pathway (cAMP), MOR, in words [3]: full agonist for both MOR and DOR; pEC50, cAMP assay, MOR (Table 2) [3]: 7.6 ± 0.1 M; pEC50, cAMP assay, MOR/DOR (Table 2) ([8]; -LogEC50, means ± S.E.M. (n = 6–8), Figure 6, + p < 0.05 vs ML335): 7.0 ± 0.1 M; effect through G-protein-mediated pathway (cAMP), MOR/DOR heteromer, in words ([8]; cADDis cAMP assay, compared with ML335): full agonist of MOR/DOR; Emax, cAMP assay, MOR/DOR (Table 2) ([8]; relative to 10^−5 M ML335, cADDis sensor, 50 μM forskolin, 28 °C, 40 min reading, 10^−11–10^−5 M, means ± S.E.M. (n = 6–8), Figure 6, + p < 0.05 vs ML335): 100.0 ± 4.2%
